Source: patent US5079260A, “Method for treating inflammation and compounds and compositions suitable for use therein” (Nova Pharmaceutical Corporation, priority 1990, dated 1992)

Experiments:
[1] = system: Reverse Passive Artus Reaction; experiment: Reverse Passive Artus Reaction (I), Table 6; type: in vivo, Male CD rats; conditions: inhibition of blueing
Text: (§1) Such inflammatory agents typically include tetradecanoylphorbolacetate, arachidonic acid, xylene, capsaicin, oxazolone, carrageenan and the like. The reverse passive Arthus test offers another measure of the compound's utility in preventing an inflammatory response (Chang et al, Eur. J. Pharm. 69:155-164 (1981)). Test compounds are typically administered intraperitoneally or topically. For intraperitoneal administration, the test compound can be given in dimethyl sulfoxide or in 0.5% methylcellulose 30 minutes prior to administration of the irritant. For topical administration, the test compound can be dissolved in, for example, acetone, ethanol or dimethyl sulfoxide and applied about 15 minutes prior to application of the irritant. Results can be expressed as the percent decrease in swelling in the compound-treated animals as compared to control animals that receive only the irritant.
Reverse Passive Artus Reaction (I)
Male CD rats weighing between 200 and 250 g were used. Test compounds (compounds of Formula I where X is oxygen, R3, R4, A and B are hydrogen and Q is as indicated in Table 6) were dissolved in dimethyl sulfoxide and 200 μl of this solution (100 mg/kg) were injected intraperitoneally one hour before administration of the antigen. The animals were anesthetized inhalationally with isoflurane and then were injected through the penile vein with 1 ml of a solution of 2.5 mg of Evan's blue dye and 5.0 mg of human serum albumin in 1 ml of saline. This treatment was followed immediately by intracutaneous injections of 0.03 ml of anti-human albumin diluted to contain 3.65 mg of antibody at 3 sites along the midline back. Anesthesia was terminated and after three hours the animals were sacrificed. The skin was removed and the blue stained areas cut out. […] The tube contents were agitated and centrifuged, and the absorbance of the supernatant liquid was measured at 620 nm. The data were calculated as inhibition of blueing by test compound compared to control animals receiving only antigen and antibody.

[2] = system: Ear Edema Caused By Tetradecanoylphorbol Acetate; experiment: Inhibition of Ear Edema Caused by Tetradecanoylphorbol Acetate (II), Table 7; type: in vivo, CF-1 Mice; conditions: i.p., 3 h
[3] = system: Ear Edema Caused by Xylene; experiment: Inhibition of Ear Edema Caused by Xylene (II), Table 9; type: in vivo, CF-1 mice; conditions: i.p., 2 h
In short: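 CF-1 mice (25-30 g, six per group) received compound i.p. in DMSO or 0.5% methylcellulose 30 min before xylene was applied to both ear surfaces. Ear thickness was measured by micrometer 2 h later. Values are percent inhibition of the increase in ear thickness versus irritant-only controls.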

[4] = system: Ear Edema Caused by Tetradecanoylphorbolacetate; experiment: Inhibition of Ear Edema Caused by Tetradecanoylphorbolacetate (I), Table 1; type: in vivo, CF-1 Mice; conditions: i.p.
Text: as §1
Inhibition of Ear Edema Caused by Tetradecanoylphorbolacetate (I)
CF-1 Mice, 25-30 g body weight, six animals per group, were used. Test compounds (compounds of Formula I where X is oxygen, R3, R4, A and B are hydrogen and Q is as indicated in Table 1) were administered intraperitoneally (100 mg/kg) or topically as follows. For intraperitoneal administration, the test compound was dissolved in dimethyl sulfoxide or 0.5% methylcellulose and 100 μl was injected 30 minutes prior to irritant (100 mg/kg, i.p.). For topical administration, the test compound was dissolved in either acetone, ethanol or dimethyl sulfoxide and 5 μl (100 μg) applied to the upper surface (1 cm^2) of the ear and an additional 5 μl (100 μg) applied to the lower surface (1 cm^2) of the ear fifteen minutes prior to application of the irritant. A solution of the irritant, tetradecanoylphorbolacetate, 200 μg/ml, was added to the surface of the ear, 5 μl added to the upper surface and 5 μl to the lower surface. After three hours, the thickness of the ear was measured to 0.01 mm by a micrometer with loose drag positioned at the lateral-most edge of the mid-point of the pinna. Data were calculated as the inhibition by the test compound of increased ear thickness compared to control animals receiving only the irritant.

[5] = system: Reverse Passive Artus Reaction; experiment: Reverse Passive Artus Reaction (II), Table 11; type: in vivo, Male CD rats; conditions: inhibition of blueing, i.p.
Description: Reverse Passive Artus Reaction (II) Male CD rats weighing between 200 and 250 g were used. […] The animals were anesthetized inhalationally with isoflurane and then injected through the penile vein with 1 mL of a solution of 2.5 mg of Evan's blue dye and 5.0 mg of human serum albumin in 1 mL of saline. This treatment was followed immediately by intracutaneous injections of 0.03 mL of anti-human albumin diluted to contain 3.65 mg of antibody at 3 sites along the midline back. Anesthesia was terminated and after three hours, the animals were sacrificed. The skin was removed and the blue stained areas cut out. The skin patches were soaked overnight in stoppered tubes containing 1 mL of 1 N potassium hydroxide at 37° C. Then 9 mL of a mixture of five parts of a 0.6 N phosphoric acid and thirteen parts of acetone were added to the tubes. The tube contents were agitated and centrifuged, and the absorbance measured at 620 nm. The data were calculated as inhibition of blueing by test compound compared to control animals receiving only antigen and antibody.

[6] = system: Ear Edema Caused by Arachidonic Acid; experiment: Inhibition of Ear Edema Caused by Arachidonic Acid (II), Table 8; type: in vivo, CF-1 mice; conditions: i.p., sixty minutes
In short: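 CF-1 mice (25-30 g, six/group) dosed intraperitoneally with compound in DMSO or 0.5% methylcellulose 30 min before topical arachidonic acid (100 mg/mL in ethanol, both ear surfaces).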

[7] = system: Ear Edema Caused by Oxazolone; experiment: Inhibition of Ear Edema Caused by Oxazolone (I), Table 5; type: in vivo, CF-1 Mice; conditions: 24 h
Text: as §1
Inhibition of Ear Edema Caused by Oxazolone (I)
CF-1 Mice, 25-30 g body weight, six animals per group, were used. The mice were sensitized to the irritant two weeks prior to the test by dribbling 100 μl of a 3% solution of oxazolone in acetone onto the abdominal skin of the animal. Test compounds (compounds of Formula I where X is oxygen, R3, R4, A and B are hydrogen and Q is as indicated in Table 5) were administered intraperitoneally as follows. The test compound was dissolved in DMSO or 0.5% methylcellulose and 100 μl (100 mg/kg) was injected 30 minutes prior to irritant. The irritant, 3% oxazolone in acetone, was added to the surface of the ear, 5 μl added to the upper surface and 5 μl to the lower surface. After twenty four hours, the thickness of the ear was measured to 0.01 mm by a micrometer with loose drag positioned at the lateral-most edge of the mid-point of the pinna. Data were calculated as the inhibition by the test compound of increased ear thickness compared to control animals receiving only the irritant.

[8] = system: Ear Edema Caused by Arachidonic Acid; experiment: Inhibition of Ear Edema Caused by Arachidonic Acid (I), Table 2; type: in vivo, CF-1 Mice; conditions: i.p., 100 mg/kg; ear thickness at sixty minutes
Text: as §1
Inhibition of Ear Edema Caused by Arachidonic Acid (I)
CF-1 Mice, 25-30 g body weight, six animals per group, were used. Test compounds (compounds of Formula I where X is oxygen, R3, R4, A and B are hydrogen and Q is as indicated in Table 2) were administered intraperitoneally (100 mg/kg) as follows. For intraperitoneal administration, test compound was dissolved in DMSO or 0.5% methylcellulose and 100 μl was injected 30 minutes prior to i.p. administration of 100 mg/kg of arachidonic acid. A solution of the irritant, arachidonic acid, 100 mg/ml in ethanol, was added to the surface of the ear, 5 μl added to the upper surface and 5 μl to the lower surface. After sixty minutes, the thickness of the ear was measured to 0.01 mm by a micrometer with loose drag positioned at the lateral-most edge of the mid-point of the pinna. Data were calculated as the percent inhibition by the test compound of increased ear thickness compared to control animals receiving only the irritant.

[9] = system: Ear Edema Caused by Xylene; experiment: Inhibition of Ear Edema Caused by Xylene (I), Table 3; type: in vivo, CF-1 Mice; conditions: 2 h; for % Inhibition Intraperitoneal: i.p., 100 mg/kg, 30 min before irritant
Text: as §1
Inhibition of Ear Edema Caused by Xylene (I)
CF-1 Mice, 25-30 g body weight, six animals per group, were used. Test compounds (compounds of Formula I where X is oxygen, R3, R4, A and B are hydrogen and Q is as indicated in Table 3) were administered intraperitoneally (100 mg/kg) or topically as follows. For intraperitoneal administration, the test compound was dissolved in DMSO or 0.5% methylcellulose and 100 μl was injected 30 minutes prior to irritant. For topical administration, test compound was dissolved in either acetone, ethanol or dimethyl sulfoxide and 5 μl (10 μg) applied to the upper surface (1 cm^2) of the ear and an additional 5 μl (10 μg) applied to the lower surface (1 cm^2) of the ear fifteen minutes prior to application of the irritant. The irritant, xylene, was added to the surface of the ear, 20 μl added to the upper surface and 20 μl to the lower surface. After two hours, the thickness of the ear was measured to 0.01 mm by a micrometer with loose drag positioned at the lateral-most edge of the mid-point of the pinna. Data were calculated as the inhibition by the test compound of increased ear thickness compared to that of control animals receiving only the irritant.

[10] = system: Adjuvant Induced Fibrinogen; experiment: Adjuvant Arthritis: Inhibition of Adjuvant Induced Fibrinogen, Table 12; type: in vivo, Male Sprague Dawley rats; conditions: i.p., 100 mg/kg, day 3
[11] = system: Ear Edema Caused by Oxazolone; experiment: Inhibition of Ear Edema Caused by Oxazolone (II), Table 10; type: in vivo, CF-1 mice; conditions: i.p., 24 h
[12] = 100 mg/kg, 30 min before irritant, ear thickness at 3 h

| SMILES | % Inhibition Intraperitoneal ([2]; 10 mg/kg) | % Inhibition ([3]; 10 mg/kg) | % Inhibition Intraperitoneal ([6]; 10 mg/kg) | % Inhibition Intraperitoneal [8] | % Inhibition Intraperitoneal [9] | % Inhibition Intraperitoneal [4, 12] | % Inhibition Intraperitoneal ([2]; 30 mg/kg) | % Inhibition Intraperitoneal ([2]; 100 mg/kg) | % Inhibition [10] | % Inhibition ([3]; 30 mg/kg) | % Inhibition ([3]; 100 mg/kg) | % Inhibition Intraperitoneal ([5]; 100 mg/kg) | % Inhibition Intraperitoneal ([11]; 10 mg/kg) | % Inhibition Intraperitoneal ([11]; 30 mg/kg) | % Inhibition Intraperitoneal ([11]; 100 mg/kg) | % Inhibition Intraperitoneal ([6]; 30 mg/kg) | % Inhibition Intraperitoneal ([6]; 100 mg/kg) | further results |
| --- | --- | --- | --- | --- | --- | --- | --- | --- | --- | --- | --- | --- | --- | --- | --- | --- | --- | --- |
| COc1cc2c(c(OC)c1OC)-c1ccc(OC)c(=O)cc1[C@@H](NC(C)=O)CC2 [Colchicine, reference compound] |  |  |  |  |  |  |  |  |  |  |  |  |  |  |  |  |  | % Inhibition Intraperitoneal ([1]; Reference Standard 1 mg/kg): 64% |
| C[C@@H]1C[C@H]2[C@@H]3CCC4=CC(=O)C=C[C@]4(C)[C@@]3(F)[C@@H](O)C[C@]2(C)[C@@]1(O)C(=O)CO [Dexamethasone, reference compound] | 50% | 34% | 12% |  |  |  |  |  |  |  |  |  |  |  |  |  |  | % Inhibition Intraperitoneal ([4]; Reference Standard, 10 mg/kg, 3 h): 50%; % Inhibition Intraperitoneal ([5]; 10 mg/kg): 4%; % Inhibition Intraperitoneal ([7]; Reference Standard at 10 mg/kg): 48% |
| O=C(N[C@@H](Cc1ccccc1)C(=O)O)OCC1c2ccccc2-c2ccccc21 [L-Phenylalanine, N-[(9H-Fluoren-9-ylmethoxy)carbonyl]-L-phenylalanine] |  |  |  | 70% | 49% | 78% |  |  |  |  |  |  |  |  |  |  |  | % Inhibition, topical ([9]; topical, 10 μg upper + 10 μg lower ear surface, 15 min before irritant): 50%; % Inhibition Intraperitoneal ([1]; i.p., 100 mg/kg, one hour before antigen): 47%; % Inhibition Intraperitoneal ([7]; i.p., 100 mg/kg, 30 min before irritant, sensitized mice): 62% |
| CC(C)C[C@H](NC(=O)OCC1c2ccccc2-c2cc3ccccc3cc21)C(=O)O (stereo partly drawn) [NPC 15510, N-[9H-(2,3-Benzofluoren-9-ylmethoxy)carbonyl]-L-leucine] | 48% | 40% | -24% |  |  |  | 70% | 70% | 35% | 40% | 49% | 50% | -7% | 3% | 101% | 69% | 67% |  |
| CC(C)C[C@H](NC(=O)OCC1c2ccccc2-c2ccccc21)C(N)=O [NPC 15528, N-[(9H-Fluoren-9-ylmethoxy)carbonyl]-L-leucine Amide] | 61% | 20% | 31% |  |  |  | 64% | 75% | 0% | 27% | 39% | 0% | 41% | 25% | 46% | 32% | 35% |  |
| CN1C(C(=O)Nc2ccccn2)=C(O)c2ccccc2S1(=O)=O [Piroxicam, reference compound] | 7% | 53% | 56% | 86% | 74% | 40% | 14% | 40% |  | 49% | 74% |  |  |  |  | 77% | 86% |  |
